Common to all, as to assay: Preemergent control of plant species
One experiment deals with soybean. The format is in vivo, Glycine max. Particulars: 0.25 lb/acre; for plant injury at 280.212 g/ha: Glycine max, pre-emergence, 336 h, read-out: percent preemergent control. As to the method: (§1) The seeds of various species of plants were planted in beds of good agricultural soil in a greenhouse. A number of compositions of the present invention, generally in the nature of an aqueous emulsion, were applied at rates listed in the table so as to deposit a predetermined amount of active ingredients uniformly throughout the surface of the bed. Another seed bed was treated only with water to serve as a control. After treatment the seed beds were maintained for two weeks under greenhouse conditions conducive for good plant growth and watered as necessary. Control refers to the reduction in growth compared to the observed results of the same untreated species.

For the next experiment, the system named is velvetleaf. The format is in vivo, Abutilon theophrasti. Particulars: 0.25 lb/acre; for pest or weed control at 280.212 g/ha: Abutilon theophrasti, pre-emergence, 336 h, read-out: percent preemergent control. Here is the method: as §1
The subject of another experiment is rape. The format is in vivo, Brassica napus. The following applies: 0.25 lb/acre; for plant injury at 280.212 g/ha: Brassica napus, pre-emergence, 336 h, read-out: percent preemergent control. As to the method:
as §1

The next experiment has as its system barnyardgrass. The format is in vivo, Echinochloa crusgalli. The following applies: 0.25 lb/acre; for pest or weed control at 280.212 g/ha: Echinochloa crus-galli, pre-emergence, 336 h, read-out: percent preemergent control. As to the method: as §1
For the next experiment, the system named is annual morning glory. The format is in vivo, Ipomoea spp. Particulars: 0.25 lb/acre; for pest or weed control at 280.212 g/ha: Ipomoea, pre-emergence, 336 h, read-out: percent preemergent control. Here is the method: as §1
The test system of a further experiment is johnson grass. The format is in vivo, Sorghum halepense. The following applies: 0.25 lb/acre; for pest or weed control at 280.212 g/ha: Sorghum halepense, pre-emergence, 336 h, read-out: percent preemergent control. Here is the method: as §1
The next experiment has as its system jimsonweed. The format is in vivo, Datura stramonium. The following applies: 0.25 lb/acre; for pest or weed control at 280.212 g/ha: Datura stramonium, pre-emergence, 336 h, read-out: percent preemergent control. As to the method: as §1
For another experiment, the system named is corn. The format is in vivo, Zea mays. Particulars: 0.25 lb/acre; for plant injury at 280.212 g/ha: Zea mays, pre-emergence, 336 h, read-out: percent preemergent control. As to the method:
as §1

The test system of the next experiment is sorghum. The format is in vivo, Sorghum vulgare. The following applies: 0.25 lb/acre; for plant injury at 280.212 g/ha: Sorghum, pre-emergence, 336 h, read-out: percent preemergent control. As to the method:
as §1

In a further experiment the test system is rice. The format is in vivo, Oryza sativa. Particulars: 0.25 lb/acre; for plant injury at 280.212 g/ha: Oryza sativa, pre-emergence, 336 h, read-out: percent preemergent control. Here is the method: as §1
In the next experiment the test system is yellow foxtail. The format is in vivo, Setaria lutescens. Particulars: 0.25 lb/acre; for pest or weed control at 280.212 g/ha: Setaria, pre-emergence, 336 h, read-out: percent preemergent control. Here is the method:
as §1

For a further experiment, the system named is sugar beet. The format is in vivo, Beta saccharifera. Particulars: 0.25 lb/acre; for plant injury at 280.212 g/ha: Beta vulgaris, pre-emergence, 336 h, read-out: percent preemergent control. As to the method:
as §1

Another experiment has as its system yellow nutsedge. The format is in vivo, Cyperus esculentus. The following applies: 0.25 lb/acre; for pest or weed control at 280.212 g/ha: Cyperus, pre-emergence, 336 h, read-out: percent preemergent control. As to the method: as §1
The next experiment relates to wheat. The format is in vivo, Triticum aestivum. The following applies: 0.25 lb/acre; for plant injury at 280.212 g/ha: Triticum aestivum, pre-emergence, 336 h, read-out: percent preemergent control. Here is the method: as §1
For a further experiment, the system named is cotton. The format is in vivo, Gossypium spp. The following applies: 0.25 lb/acre; for plant injury at 280.212 g/ha: Gossypium hirsutum, pre-emergence, 336 h, read-out: percent preemergent control. As to the method: as §1

In the case of `COc1nc2nc(S(=O)(=O)Nc3c(F)ccc(C)c3F)nn2cc1C` [Compound 219], the plant injury at 280.212 g/ha with soybean came out at 100%; with rape it was 100%; in the experiment on corn it was 100%; with sorghum, 100%; with rice it was 50%; in the experiment on sugar beet, 100%. The plant injury at 280.212 g/ha with wheat and with cotton was 100% in each case. Further, the pest or weed control at 280.212 g/ha came to 100% in the experiment with velvetleaf; 100% in the experiment with barnyardgrass; 100% with annual morning glory; 10% in the experiment on johnson grass; 100% in the experiment with jimsonweed; 100% in the experiment with yellow foxtail. The pest or weed control at 280.212 g/ha in the experiment with yellow nutsedge amounted to 100%.
For the molecule `CCC(=O)N(c1c(F)cccc1F)S(=O)(=O)c1nc2nc(C)ccn2n1` [Compound 276], the plant injury at 280.212 g/ha in the experiment on soybean is 10%; in the experiment on rape it was 100%; with corn it was 60%; in the experiment on sorghum, 100%; in the experiment on rice it was 90%; in the experiment with sugar beet, 100%. Besides, the plant injury at 280.212 g/ha in the experiment on wheat and with cotton was 80% in each case. Moreover, the pest or weed control at 280.212 g/ha in the experiment with velvetleaf turned out to be 100%; with barnyardgrass, 100%; in the experiment on annual morning glory, 90%; in the experiment with johnson grass it was 90%; in the experiment with jimsonweed, 100%; in the experiment on yellow foxtail, 100%. Besides, the pest or weed control at 280.212 g/ha in the experiment with yellow nutsedge was 100%.
Turning to `Cc1cc(C(F)(F)F)n2nc(S(=O)(=O)Nc3c(Cl)cccc3Cl)nc2n1` [Compound 227], the plant injury at 280.212 g/ha with soybean was 0%; in the experiment on rape it was 100%; in the experiment on corn, 40%; in the experiment on sorghum it was 100%; with rice it was 50%; in the experiment on sugar beet, 100%. In addition, the plant injury at 280.212 g/ha in the experiment on wheat worked out at 90%; with cotton it was 60%. Besides, the pest or weed control at 280.212 g/ha in the experiment on velvetleaf is 30%; in the experiment with barnyardgrass, 50%; in the experiment with annual morning glory it was 70%; with johnson grass, 70%; with jimsonweed, 100%; in the experiment with yellow foxtail it was 90%. The pest or weed control at 280.212 g/ha in the experiment on yellow nutsedge is 100%.
In the case of `COC(=O)c1cccc(C)c1NS(=O)(=O)c1nc2nccc(C)n2n1` [Compound 189], the plant injury at 280.212 g/ha was determined as 80% in the experiment on soybean; 100% in the experiment with rape; 80% in the experiment with corn; 100% in the experiment on sorghum; 90% with rice; 100% in the experiment on sugar beet. For the same molecule, the plant injury at 280.212 g/ha in the experiment on wheat was 80%; in the experiment with cotton, 100%. The pest or weed control at 280.212 g/ha in the experiment on velvetleaf worked out at 100%; in the experiment on barnyardgrass it was 80%; in the experiment on annual morning glory, 50%; in the experiment on johnson grass it was 70%; with jimsonweed, 80%; in the experiment on yellow foxtail, 80%. In the experiment on yellow nutsedge, the pest or weed control at 280.212 g/ha turned out to be 100%.
`CCCC(=O)N(c1c(F)cccc1F)S(=O)(=O)c1nc2nc(C)ccn2n1` [Compound 283]: the plant injury at 280.212 g/ha in the experiment on soybean was 20%; in the experiment with rape, 100%; in the experiment on corn, 40%; in the experiment on sorghum it was 100%; in the experiment on rice it was 100%; in the experiment on sugar beet, 100%. Besides, the plant injury at 280.212 g/ha in the experiment on wheat and in the experiment with cotton was 100% each time. Besides, the pest or weed control at 280.212 g/ha in the experiment on velvetleaf was found to be 100%; in the experiment on barnyardgrass, 100%; with annual morning glory, 80%; in the experiment with johnson grass it was 100%; with jimsonweed, 95%; in the experiment on yellow foxtail, 100%. Further, in the experiment on yellow nutsedge, the pest or weed control at 280.212 g/ha amounted to 100%.
Take `C=C(C)C(=O)N(c1c(F)cccc1F)S(=O)(=O)c1nc2nc(C)ccn2n1` [Compound 286]: the plant injury at 280.212 g/ha amounted to 30% in the experiment on soybean; 100% in the experiment on rape; 50% with corn; 100% with sorghum; 100% with rice; 100% with sugar beet. Further, the plant injury at 280.212 g/ha amounted to 70% in the experiment with wheat and 100% with cotton. For the same molecule, the pest or weed control at 280.212 g/ha with velvetleaf, in the experiment with barnyardgrass, in the experiment on annual morning glory, in the experiment with johnson grass, in the experiment with jimsonweed and in the experiment on yellow foxtail was 100% throughout. Besides, in the experiment on yellow nutsedge, the pest or weed control at 280.212 g/ha was 100%.
`Cc1ccn2nc(S(=O)(=O)Nc3c(F)cccc3[N+](=O)[O-])nc2n1` [Compound 173]: the percent preemergent control in the experiment with soybean stood at 0%; in the experiment on velvetleaf it was 0%; in the experiment with rape, 80%; in the experiment with barnyardgrass, 30%; in the experiment with annual morning glory, 0%; with johnson grass it was 70%. Further, the percent preemergent control in the experiment with jimsonweed was found to be 0%; in the experiment on corn, 30%; in the experiment on sorghum it was 30%; with rice it was 70%; in the experiment on yellow foxtail, 50%; with sugar beet, 90%. Further, the percent preemergent control is listed as 0% in the experiment on yellow nutsedge, 20% in the experiment with wheat and 50% in the experiment with cotton.
As for `Cc1cc(C(F)(F)F)n2nc(S(=O)(=O)Nc3c(Cl)ccc(C)c3Cl)nc2n1` [Compound 229], the plant injury at 280.212 g/ha was found to be 30% in the experiment on soybean; 100% in the experiment on rape; 40% in the experiment with corn; 90% in the experiment on sorghum; 10% with rice; 100% with sugar beet. Also, the plant injury at 280.212 g/ha in the experiment on wheat was found to be 0%; in the experiment on cotton, 100%. Besides, the pest or weed control at 280.212 g/ha in the experiment with velvetleaf is 90%; in the experiment on barnyardgrass, 0%; in the experiment on annual morning glory, 100%; with johnson grass, 0%; in the experiment with jimsonweed it was 90%; with yellow foxtail it was 0%. The pest or weed control at 280.212 g/ha with yellow nutsedge is 100%.
On to `COc1cccc(C(F)(F)F)c1NS(=O)(=O)c1nc2nccc(C)n2n1` [Compound 191], for which the plant injury at 280.212 g/ha worked out at 100% in the experiment with soybean; 100% with rape; 95% with corn; 100% in the experiment with sorghum; 100% with sugar beet; 100% in the experiment with wheat. Besides, the plant injury at 280.212 g/ha with cotton was found to be 100%. In addition, the pest or weed control at 280.212 g/ha in the experiment with velvetleaf, with barnyardgrass, in the experiment on annual morning glory, with johnson grass, in the experiment on jimsonweed and with yellow foxtail was 100% throughout. In addition, the pest or weed control at 280.212 g/ha in the experiment on yellow nutsedge amounted to 100%.

The record behind these values is patent US4740233A, “Substituted 1,2,4-triazolo[1,5-a]-pyrimidine-2-sulfonamides and compositions and methods of controlling undesired vegetation and suppressing the nitrification of ammonium nitrogen in soil” (The Dow Chemical Company, priority 1986, dated 1988).
